Measured values as given in ChEMBL document CHEMBL1201862, “PubChem BioAssay data set” (2004).
Activity calls are given as the source filed them.

Experiments:
[1] = molecular target: T1, Corticotropin-releasing factor receptor 2/Corticotropin-releasing factor-binding protein (Homo sapiens, UniProt P24387+Q13324); assay: Dose Response confirmation of uHTS hits for small molecule antagonists of the CRF-binding protein and CRF-R2 receptor complex.; type: functional; conditions: read-out: IC50_Mean
T1 sequence (Q13324 whole entry): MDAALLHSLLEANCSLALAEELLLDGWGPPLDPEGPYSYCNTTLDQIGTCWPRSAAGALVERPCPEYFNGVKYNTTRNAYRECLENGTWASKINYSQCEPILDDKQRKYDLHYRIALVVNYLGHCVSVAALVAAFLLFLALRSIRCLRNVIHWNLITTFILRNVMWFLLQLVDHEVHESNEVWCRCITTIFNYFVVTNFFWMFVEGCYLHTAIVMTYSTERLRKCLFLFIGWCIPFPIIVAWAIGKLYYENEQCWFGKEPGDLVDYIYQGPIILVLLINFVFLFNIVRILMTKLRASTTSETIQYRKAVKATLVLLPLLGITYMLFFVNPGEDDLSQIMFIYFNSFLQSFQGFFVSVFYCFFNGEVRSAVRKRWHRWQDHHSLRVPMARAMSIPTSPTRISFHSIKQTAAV
T1 sequence (P24387 whole entry): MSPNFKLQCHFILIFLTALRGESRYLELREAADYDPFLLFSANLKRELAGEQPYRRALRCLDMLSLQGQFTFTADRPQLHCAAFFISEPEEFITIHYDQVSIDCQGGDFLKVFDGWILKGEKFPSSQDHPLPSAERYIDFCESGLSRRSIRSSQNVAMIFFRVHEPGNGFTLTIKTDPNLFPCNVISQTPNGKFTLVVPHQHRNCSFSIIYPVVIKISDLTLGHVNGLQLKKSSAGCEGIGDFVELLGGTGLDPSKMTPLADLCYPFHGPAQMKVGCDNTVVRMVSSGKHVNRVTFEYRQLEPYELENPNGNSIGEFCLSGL

[2] = molecular target: T2, Rac GTPase-activating protein 1 (Homo sapiens, UniProt Q9H0H5); assay: MgcRacGAP GTPase-activating activity inhibitors, confirmation, biochemical, ADP Hunter fluorescence, primary and confirmatory (AID 624330); type: functional
T2 sequence (Q9H0H5 whole entry): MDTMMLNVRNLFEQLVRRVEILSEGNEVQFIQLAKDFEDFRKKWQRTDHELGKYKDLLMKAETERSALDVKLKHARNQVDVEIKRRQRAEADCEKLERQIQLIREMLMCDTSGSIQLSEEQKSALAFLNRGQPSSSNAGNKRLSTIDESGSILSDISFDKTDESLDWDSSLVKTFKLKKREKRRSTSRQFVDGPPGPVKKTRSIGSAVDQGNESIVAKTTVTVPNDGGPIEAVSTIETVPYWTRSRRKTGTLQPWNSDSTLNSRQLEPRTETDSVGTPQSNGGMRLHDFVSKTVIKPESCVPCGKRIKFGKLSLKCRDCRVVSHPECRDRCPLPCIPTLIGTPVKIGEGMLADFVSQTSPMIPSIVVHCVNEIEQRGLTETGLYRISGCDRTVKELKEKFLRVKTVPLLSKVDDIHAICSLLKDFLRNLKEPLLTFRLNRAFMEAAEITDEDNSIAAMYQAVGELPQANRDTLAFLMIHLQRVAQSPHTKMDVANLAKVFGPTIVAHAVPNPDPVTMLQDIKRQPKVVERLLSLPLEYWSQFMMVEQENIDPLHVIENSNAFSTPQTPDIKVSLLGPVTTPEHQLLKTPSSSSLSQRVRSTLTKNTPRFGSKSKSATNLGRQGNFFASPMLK

[3] = molecular target: T1, Corticotropin-releasing factor receptor 2/Corticotropin-releasing factor-binding protein; assay: activators of CRF receptor 2 with binding protein – uHTS hits, confirmation (AID 602473); type: functional; conditions: read-out: EC50_Mean
[4] = CRF-BP/CRF-R2 complex antagonists, dose response, cell-based, uHTS hits, 384-well (AID 651639); type: functional, Homo sapiens; conditions: read-out: IC50_Mean
[5] = P. falciparum late gametocyte killing, dose response, luminescence (AID 1117278); type: functional, cell-based;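 also: gametocytes exposed to compound for 24 hours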
[6] = Jurkat T cell cytotoxicity, dose response, cytotoxicity control for P. falciparum gametocyte viability project, luminescence (AID 1117277); type: functional, cell-based;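 also: potency reflects loss of cellular ATP meaning fewer viable cells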
[7] = molecular target: T3, Fructose-bisphosphate aldolase (Mycobacterium tuberculosis, UniProt P9WQA3); assay: Fluorescence-based biochemical high throughput dose response assay for inhibitors of the fructose-bisphosphate aldolase (FBA) of M. tuberculosis.; type: functional
T3 sequence (P9WQA3 whole entry): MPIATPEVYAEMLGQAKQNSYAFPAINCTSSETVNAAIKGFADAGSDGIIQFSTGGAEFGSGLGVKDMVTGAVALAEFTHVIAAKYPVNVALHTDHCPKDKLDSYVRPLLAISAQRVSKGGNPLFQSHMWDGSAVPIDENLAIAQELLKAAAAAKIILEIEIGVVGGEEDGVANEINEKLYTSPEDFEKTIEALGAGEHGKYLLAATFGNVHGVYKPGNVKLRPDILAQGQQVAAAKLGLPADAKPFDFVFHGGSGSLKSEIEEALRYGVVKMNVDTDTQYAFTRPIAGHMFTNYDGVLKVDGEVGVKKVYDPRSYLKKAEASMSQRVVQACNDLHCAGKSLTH

[8] = Counterscreen for activators of the function of SWI/SNF related, matrix associated, actin dependent regulator of chromatin, subfamily a, member 2 (SMARCA2, BRM): Luminescence-based cell-based high throughput dose response assay to identify non-selective compounds using the VP16 reporter assay.; type: functional
[9] = molecular target: SWI/SNF-related matrix-associated actin-dependent regulator of chromatin subfamily A member 2 (Homo sapiens, UniProt P51531); assay: Luminescence-based cell-based high throughput dose response assay to identify activators of the function of SWI/SNF related, matrix associated, actin dependent regulator of chromatin, subfamily a, member 2 (SMARCA2, BRM).; type: functional
SWI/SNF-related matrix-associated actin-dependent regulator of chromatin subfamily A member 2, sequence (P51531 whole entry): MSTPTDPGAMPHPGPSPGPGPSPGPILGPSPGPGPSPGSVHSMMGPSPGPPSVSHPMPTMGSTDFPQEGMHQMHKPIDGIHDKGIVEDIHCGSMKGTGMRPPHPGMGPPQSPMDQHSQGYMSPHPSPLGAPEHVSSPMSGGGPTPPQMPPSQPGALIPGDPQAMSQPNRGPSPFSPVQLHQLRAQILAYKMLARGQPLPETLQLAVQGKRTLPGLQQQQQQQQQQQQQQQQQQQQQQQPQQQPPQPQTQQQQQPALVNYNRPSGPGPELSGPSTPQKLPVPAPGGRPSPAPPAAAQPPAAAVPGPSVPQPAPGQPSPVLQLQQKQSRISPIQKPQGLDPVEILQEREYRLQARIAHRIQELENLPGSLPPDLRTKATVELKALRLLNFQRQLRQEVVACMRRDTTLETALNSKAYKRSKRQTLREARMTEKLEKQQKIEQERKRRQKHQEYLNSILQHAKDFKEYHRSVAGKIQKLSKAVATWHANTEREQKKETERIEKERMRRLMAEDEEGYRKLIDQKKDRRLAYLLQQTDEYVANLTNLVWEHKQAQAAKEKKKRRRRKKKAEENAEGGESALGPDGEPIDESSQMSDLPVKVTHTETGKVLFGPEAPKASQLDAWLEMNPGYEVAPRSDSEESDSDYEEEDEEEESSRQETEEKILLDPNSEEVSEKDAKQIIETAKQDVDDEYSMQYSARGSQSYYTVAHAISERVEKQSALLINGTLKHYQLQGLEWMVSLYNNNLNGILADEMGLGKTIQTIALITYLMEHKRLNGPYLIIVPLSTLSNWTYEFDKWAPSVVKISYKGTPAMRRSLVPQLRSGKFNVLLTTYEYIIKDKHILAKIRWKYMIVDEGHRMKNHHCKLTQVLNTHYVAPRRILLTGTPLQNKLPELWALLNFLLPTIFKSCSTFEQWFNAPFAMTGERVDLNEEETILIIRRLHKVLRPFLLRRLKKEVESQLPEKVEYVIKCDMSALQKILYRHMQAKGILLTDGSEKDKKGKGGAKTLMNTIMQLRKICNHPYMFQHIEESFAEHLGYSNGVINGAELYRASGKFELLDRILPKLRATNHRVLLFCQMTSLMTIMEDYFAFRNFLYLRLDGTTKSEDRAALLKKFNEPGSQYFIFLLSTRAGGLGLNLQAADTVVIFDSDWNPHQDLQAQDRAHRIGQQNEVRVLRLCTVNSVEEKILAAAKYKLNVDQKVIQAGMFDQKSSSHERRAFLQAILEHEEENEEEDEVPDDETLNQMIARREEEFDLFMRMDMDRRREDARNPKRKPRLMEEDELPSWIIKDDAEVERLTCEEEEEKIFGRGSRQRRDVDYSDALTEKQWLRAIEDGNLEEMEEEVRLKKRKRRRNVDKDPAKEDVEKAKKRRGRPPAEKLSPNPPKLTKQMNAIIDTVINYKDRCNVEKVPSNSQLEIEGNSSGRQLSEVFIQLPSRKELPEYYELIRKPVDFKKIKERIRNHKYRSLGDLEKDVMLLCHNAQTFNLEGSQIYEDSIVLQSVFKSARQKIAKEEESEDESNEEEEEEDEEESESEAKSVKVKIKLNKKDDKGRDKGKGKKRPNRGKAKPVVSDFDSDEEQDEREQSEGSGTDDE

[10] = NIH-3T3 fibroblast cytotoxicity, dose response, cytotoxicity control, cell-based, fluorescence, Alamar Blue, secondary assay (AID 2327); type: functional;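 also: NIH-3T3 mouse fibroblasts cultured with fluconazole at 8 µg/mL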
Protein Tat = molecular target: T4, Protein Tat (Human immunodeficiency virus type 1 group M subtype B (isolate HXB2)(HIV-1), UniProt P04608); type: functional;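 also: tat binding to TAR RNA read out by fluorescence polarization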
T4 sequence (P04608 whole entry): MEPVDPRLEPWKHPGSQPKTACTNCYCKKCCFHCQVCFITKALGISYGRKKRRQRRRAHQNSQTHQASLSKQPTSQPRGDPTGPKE

[11] = control 3'UTR Renilla luciferase suppression, dose response, counter-screen for Shn3 inhibitor project, cell-based, Clone20-Shn3RL, cherry-picked (AID 624133); type: functional
[12] = Shn3 3'UTR reporter inhibitors, dose response, cell-based, Clone20 osteoblasts, firefly luciferase, cherry-picked (AID 624132); type: functional;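 also: firefly luciferase luminescence from reporter carrying the Shn3 3'UTR in osteoblasts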

## O=C(Nc1ccc(O)cc1)c1cccc(Oc2ccc([N+](=O)[O-])cc2)c1
[1]
  IC50: 25.9 µM (active)
[2]
  IC50: 41.8 µM (active)
[3]
  EC50: > 53 µM (inactive)
[4]
  IC50: > 20 µM (inactive)

## CCOc1ccccc1CNCCNC(=O)c1nonc1N
[5]
  IC50: > 109 µM (inactive)
[6]
  IC50: > 83.3 µM (inactive)

## CC1(C(=O)Nc2ccccc2)Cc2c(-c3ccc4c(c3)OCO4)ccnc2O1 (configuration not stated)
[7]
  IC50: 2.52 µM (active)

## O=C(Cn1cnc2c(oc3ccccc32)c1=O)N1CCCC1
[5]
  IC50: > 109 µM (inactive)
[6]
  IC50: > 83.4 µM (inactive)

## Cc1cccc(OCCN2C(=O)c3ccccc3C2=O)c1
[5]
  IC50: > 109 µM (inactive)
[6]
  IC50: > 83.2 µM (inactive)

## CC(=O)c1ccc(-c2cnc3c(NC=O)cc(-c4ccc(N5CCN(C)CC5)cc4)cn23)cc1
[8]
  EC50: > 91.2 µM (inactive)
[9]
  EC50: 56 µM (inactive)

## O=C(O)c1cnc(-c2ccccc2)nc1Sc1ccc(Cl)cc1
[1]
  IC50: 16.8 µM (active)
[10]
  EC50: 98.3 µM (inconclusive)
[3]
  EC50: > 53 µM (inactive)
[4]
  IC50: > 20 µM (inactive)

## COCCNC(=O)c1ccc(CS(=O)(=O)c2c(Cl)cccc2Cl)o1
Protein Tat
  IC50: > 100 µM (active)

## CS(=O)(=O)c1ccc(C(=O)OCC(=O)N2CCOCC2)cc1[N+](=O)[O-]
[11]
  AC50: 27.9 µM (active)
[8]
  EC50: > 91.2 µM (inactive)
[12]
  AC50: 17.5 µM (active)
[9]
  EC50: > 91.2 µM (inactive)
